In BindingDB's records for patent US9328099 (Merck Sharp & Dohme, 2016):

What was measured:
[1] = target: Tyrosine-protein kinase JAK1 (Homo sapiens, UniProt P23458); assay: HTRF Biochemical Assay; conditions: 25 °C
[2] = target: Tyrosine-protein kinase JAK2 (Homo sapiens, UniProt O60674); assay: HTRF Biochemical Assay; conditions: 25 °C
Sequence of Tyrosine-protein kinase JAK2 (O60674 whole entry): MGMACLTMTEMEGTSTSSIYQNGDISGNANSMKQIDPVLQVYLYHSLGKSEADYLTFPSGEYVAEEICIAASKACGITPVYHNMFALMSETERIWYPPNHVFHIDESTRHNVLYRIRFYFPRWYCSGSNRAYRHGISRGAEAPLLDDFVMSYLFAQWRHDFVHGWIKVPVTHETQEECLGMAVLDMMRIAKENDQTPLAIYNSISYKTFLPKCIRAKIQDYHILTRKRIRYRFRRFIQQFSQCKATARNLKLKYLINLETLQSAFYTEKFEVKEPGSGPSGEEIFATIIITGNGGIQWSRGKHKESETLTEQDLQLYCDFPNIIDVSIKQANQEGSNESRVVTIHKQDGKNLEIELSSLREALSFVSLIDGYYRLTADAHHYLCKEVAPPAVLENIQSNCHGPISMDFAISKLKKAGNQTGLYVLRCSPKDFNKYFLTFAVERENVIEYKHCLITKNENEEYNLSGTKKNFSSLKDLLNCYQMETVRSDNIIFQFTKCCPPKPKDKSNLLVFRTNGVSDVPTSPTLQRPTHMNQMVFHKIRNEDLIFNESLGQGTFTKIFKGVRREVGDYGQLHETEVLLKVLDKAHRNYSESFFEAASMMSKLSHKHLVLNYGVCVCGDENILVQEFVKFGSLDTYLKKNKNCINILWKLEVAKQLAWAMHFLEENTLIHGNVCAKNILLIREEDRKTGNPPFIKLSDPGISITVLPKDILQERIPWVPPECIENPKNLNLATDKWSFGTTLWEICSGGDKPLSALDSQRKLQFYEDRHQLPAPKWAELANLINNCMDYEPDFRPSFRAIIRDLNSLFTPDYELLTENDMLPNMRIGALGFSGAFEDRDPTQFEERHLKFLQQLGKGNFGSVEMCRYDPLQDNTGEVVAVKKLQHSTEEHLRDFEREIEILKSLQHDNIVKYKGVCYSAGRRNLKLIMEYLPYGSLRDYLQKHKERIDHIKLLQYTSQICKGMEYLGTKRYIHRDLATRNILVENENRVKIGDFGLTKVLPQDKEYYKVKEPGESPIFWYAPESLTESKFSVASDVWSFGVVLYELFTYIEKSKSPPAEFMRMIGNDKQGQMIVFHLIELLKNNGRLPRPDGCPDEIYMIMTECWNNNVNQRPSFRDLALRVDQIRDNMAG

Sequence of Tyrosine-protein kinase JAK1 (P23458 whole entry): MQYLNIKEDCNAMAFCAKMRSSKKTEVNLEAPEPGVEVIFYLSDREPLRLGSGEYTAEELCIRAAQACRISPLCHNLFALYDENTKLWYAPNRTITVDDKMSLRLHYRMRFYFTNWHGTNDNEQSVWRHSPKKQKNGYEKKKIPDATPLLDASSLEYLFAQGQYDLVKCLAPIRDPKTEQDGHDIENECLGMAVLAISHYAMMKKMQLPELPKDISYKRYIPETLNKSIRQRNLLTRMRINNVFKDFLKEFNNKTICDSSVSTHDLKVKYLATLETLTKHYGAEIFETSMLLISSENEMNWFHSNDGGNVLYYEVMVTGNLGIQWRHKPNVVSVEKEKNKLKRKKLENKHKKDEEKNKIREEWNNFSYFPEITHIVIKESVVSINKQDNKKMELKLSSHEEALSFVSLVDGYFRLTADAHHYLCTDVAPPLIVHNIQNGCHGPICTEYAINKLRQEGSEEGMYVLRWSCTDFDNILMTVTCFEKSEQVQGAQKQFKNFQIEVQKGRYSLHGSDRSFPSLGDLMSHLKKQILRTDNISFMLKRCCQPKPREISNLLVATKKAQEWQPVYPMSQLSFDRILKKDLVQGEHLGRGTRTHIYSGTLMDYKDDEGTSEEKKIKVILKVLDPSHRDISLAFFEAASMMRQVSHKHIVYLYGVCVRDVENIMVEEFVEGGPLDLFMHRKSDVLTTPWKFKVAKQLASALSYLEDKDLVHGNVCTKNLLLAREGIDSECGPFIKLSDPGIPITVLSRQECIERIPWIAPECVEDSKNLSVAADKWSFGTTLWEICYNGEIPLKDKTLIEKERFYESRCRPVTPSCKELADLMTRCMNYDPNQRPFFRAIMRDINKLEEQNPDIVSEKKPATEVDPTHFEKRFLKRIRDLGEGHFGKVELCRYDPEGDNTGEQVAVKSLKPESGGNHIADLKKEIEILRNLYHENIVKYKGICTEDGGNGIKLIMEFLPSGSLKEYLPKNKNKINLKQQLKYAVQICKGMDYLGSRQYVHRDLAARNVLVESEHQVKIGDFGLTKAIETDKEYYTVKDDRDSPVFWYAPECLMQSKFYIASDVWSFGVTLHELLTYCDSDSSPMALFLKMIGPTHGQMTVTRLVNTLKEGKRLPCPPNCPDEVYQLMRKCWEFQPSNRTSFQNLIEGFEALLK

IC50 [1]: 0.001 µM
IC50 [2]: 0.04 µM
SMILES: Cc1cc(F)c(Nc2ccnc3c2C(=O)Nc2cc(CN4CC[C@@H](N)C4)ccc2N3)cc1O [US9328099, 29-A]
